Measurements taken from US6358885B1, “Substituted phenylheterocyclic herbicides” (Mississippi State University, priority 1992, dated 2002).

Columns and labels:
Assay in all cases: Test B preemergence/postemergence greenhouse plant response rating 0 to 10
cotton = type: in vivo, Gossypium hirsutum; conditions: for Plant response rating, Cotton: 0 to 10 scale
How it was run: (§1)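 Test chemicals were sprayed onto freshly planted seed and, concurrently, onto young plants between the one and four leaf stage. After a twelve- to sixteen-day greenhouse period, each species was visually compared with untreated controls.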

rape = type: in vivo, Brassica napus; conditions: 0 to 10 scale
How it was run: as §1

blackgrass = type: in vivo, Alopecurus myosuroides; conditions: for Plant response rating, Blackgrass: 0 to 10 scale
How it was run: as §1

rice = type: in vivo, Oryza sativa; conditions: 0 to 10 scale
How it was run: as §1

sorghum = type: in vivo, Sorghum bicolor; conditions: 0 to 10 scale
How it was run: as §1

barley = type: in vivo, Hordeum vulgare; conditions: for Plant response rating, Barley: 0 to 10 scale
How it was run: as §1

cheatgrass = type: in vivo, Bromus secalinus; conditions: for Plant response rating, Cheatgrass: 0 to 10 scale
How it was run: as §1

wheat = type: in vivo, Triticum aestivum; conditions: 0 to 10 scale
How it was run: as §1

bedstraw = type: in vivo, Galium aparine; conditions: for Plant response rating, Bedstraw: 0 to 10 scale
How it was run: as §1

SMILES | Plant response rating (0 to 10 scale), Cotton (cotton; POSTEMERGENCE, Rate 50 g/ha) | Plant response rating, Cotton (cotton; POSTEMERGENCE, Rate 200 g/ha) | Plant response rating, Cotton (cotton; PREEMERGENCE, Rate 50 g/ha) | Plant response rating, Cotton (cotton; Rate 200 g/ha, PREEMERGENCE) | Plant response rating, Rape (rape; POSTEMERGENCE, Rate 50 g/ha) | Plant response rating, Rape (rape; POSTEMERGENCE, Rate 200 g/ha) | Plant response rating, Rape (rape; PREEMERGENCE, Rate 50 g/ha) | Plant response rating, Rape (rape; Rate 200 g/ha, PREEMERGENCE) | Plant response rating (0 to 10 scale), Blackgrass (blackgrass; POSTEMERGENCE, Rate 50 g/ha) | Plant response rating, Blackgrass (blackgrass; POSTEMERGENCE, Rate 200 g/ha) | Plant response rating, Blackgrass (blackgrass; PREEMERGENCE, Rate 50 g/ha) | Plant response rating, Blackgrass (blackgrass; Rate 200 g/ha, PREEMERGENCE) | Plant response rating, Rice (rice; POSTEMERGENCE, Rate 50 g/ha) | Plant response rating, Rice (rice; POSTEMERGENCE, Rate 200 g/ha) | Plant response rating, Rice (rice; PREEMERGENCE, Rate 50 g/ha) | Plant response rating, Rice (rice; Rate 200 g/ha, PREEMERGENCE) | Plant response rating, Sorghum (sorghum; POSTEMERGENCE, Rate 50 g/ha) | Plant response rating, Sorghum (sorghum; POSTEMERGENCE, Rate 200 g/ha) | Plant response rating, Sorghum (sorghum; PREEMERGENCE, Rate 50 g/ha) | Plant response rating, Sorghum (sorghum; Rate 200 g/ha, PREEMERGENCE) | other results
CCCOc1cc(-c2nn3c(c2Cl)CCCC3)c(F)cc1Cl [Compound 23] | 10 | 10 | 5 | 5 | 6 | 10 | 3 | 6 | 6 | 6 | 6 | 7 | 4 | 6 | 0 | 2 | 4 | 6 | 0 | 2 | Plant response rating (0 to 10 scale), Barley (barley; POSTEMERGENCE, Rate 50 g/ha): 3; Plant response rating, Barley (barley; POSTEMERGENCE, Rate 200 g/ha): 3; Plant response rating, Barley (barley; PREEMERGENCE, Rate 50 g/ha): 0; Plant response rating, Barley (barley; Rate 200 g/ha, PREEMERGENCE): 0; Plant response rating (0 to 10 scale), Cheatgrass (cheatgrass; POSTEMERGENCE, Rate 50 g/ha): 6; Plant response rating, Cheatgrass (cheatgrass; POSTEMERGENCE, Rate 200 g/ha): 8; Plant response rating, Cheatgrass (cheatgrass; PREEMERGENCE, Rate 50 g/ha): 4; Plant response rating, Cheatgrass (cheatgrass; Rate 200 g/ha, PREEMERGENCE): 6; Plant response rating, Wheat (wheat; POSTEMERGENCE, Rate 50 g/ha): 2; Plant response rating, Wheat (wheat; POSTEMERGENCE, Rate 200 g/ha): 6; Plant response rating, Wheat (wheat; PREEMERGENCE, Rate 50 g/ha): 0; Plant response rating, Wheat (wheat; Rate 200 g/ha, PREEMERGENCE): 2; Plant response rating (0 to 10 scale), Bedstraw (bedstraw; POSTEMERGENCE, Rate 50 g/ha): 7; Plant response rating, Bedstraw (bedstraw; POSTEMERGENCE, Rate 200 g/ha): 9; Plant response rating, Bedstraw (bedstraw; PREEMERGENCE, Rate 50 g/ha): 5; Plant response rating, Bedstraw (bedstraw; Rate 200 g/ha, PREEMERGENCE): 5
Clc1ccc(-c2nc3n(c2Cl)CCC=C3)c(Cl)c1 [Compound 1] | 7 | 8 | 0 | 0 | 1 | 3 | 0 | 0 | 0 | 1 | 0 | 0 | 4 | 3 | 0 | 0 | 4 | 4 | 0 | 0 | Plant response rating (0 to 10 scale), Barley (barley; POSTEMERGENCE, Rate 50 g/ha): 3; Plant response rating, Barley (barley; POSTEMERGENCE, Rate 200 g/ha): 3; Plant response rating, Barley (barley; PREEMERGENCE, Rate 50 g/ha): 0; Plant response rating, Barley (barley; Rate 200 g/ha, PREEMERGENCE): 0; Plant response rating (0 to 10 scale), Cheatgrass (cheatgrass; POSTEMERGENCE, Rate 50 g/ha): 2; Plant response rating, Cheatgrass (cheatgrass; POSTEMERGENCE, Rate 200 g/ha): 2; Plant response rating, Cheatgrass (cheatgrass; PREEMERGENCE, Rate 50 g/ha): 0; Plant response rating, Cheatgrass (cheatgrass; Rate 200 g/ha, PREEMERGENCE): 0; Plant response rating, Wheat (wheat; POSTEMERGENCE, Rate 50 g/ha): 1; Plant response rating, Wheat (wheat; POSTEMERGENCE, Rate 200 g/ha): 2; Plant response rating, Wheat (wheat; PREEMERGENCE, Rate 50 g/ha): 0; Plant response rating, Wheat (wheat; Rate 200 g/ha, PREEMERGENCE): 0; Plant response rating (0 to 10 scale), Bedstraw (bedstraw; POSTEMERGENCE, Rate 50 g/ha): 3; Plant response rating, Bedstraw (bedstraw; POSTEMERGENCE, Rate 200 g/ha): 3; Plant response rating, Bedstraw (bedstraw; PREEMERGENCE, Rate 50 g/ha): 0; Plant response rating, Bedstraw (bedstraw; Rate 200 g/ha, PREEMERGENCE): 0
